In ChEMBL document CHEMBL3638997, “5-alkynyl-pyrimidines” (2013):
pIC50: −log10 of the molar value.

Target: Phosphatidylinositol 4,5-bisphosphate 3-kinase catalytic subunit alpha isoform (Homo sapiens, UniProt P42336)
Experiment: Filter-Binding-Assay: PI3Kalpha assay described herein provides IC50 values indicating the activity of the compounds inhibiting PI3 kinase alpha activity Inhibition of PI3 kinase is expected to be indicative of activity in treating conditions of excessive or anomalous cell proliferation, such as cancers. See also J. A. Engelman, Nature Reviews Cancer, 2009, 9, 550-562; A. Carnero, Expert Opin. …

Phosphatidylinositol 4,5-bisphosphate 3-kinase catalytic subunit alpha isoform, sequence (P42336 whole entry, canonical isoform): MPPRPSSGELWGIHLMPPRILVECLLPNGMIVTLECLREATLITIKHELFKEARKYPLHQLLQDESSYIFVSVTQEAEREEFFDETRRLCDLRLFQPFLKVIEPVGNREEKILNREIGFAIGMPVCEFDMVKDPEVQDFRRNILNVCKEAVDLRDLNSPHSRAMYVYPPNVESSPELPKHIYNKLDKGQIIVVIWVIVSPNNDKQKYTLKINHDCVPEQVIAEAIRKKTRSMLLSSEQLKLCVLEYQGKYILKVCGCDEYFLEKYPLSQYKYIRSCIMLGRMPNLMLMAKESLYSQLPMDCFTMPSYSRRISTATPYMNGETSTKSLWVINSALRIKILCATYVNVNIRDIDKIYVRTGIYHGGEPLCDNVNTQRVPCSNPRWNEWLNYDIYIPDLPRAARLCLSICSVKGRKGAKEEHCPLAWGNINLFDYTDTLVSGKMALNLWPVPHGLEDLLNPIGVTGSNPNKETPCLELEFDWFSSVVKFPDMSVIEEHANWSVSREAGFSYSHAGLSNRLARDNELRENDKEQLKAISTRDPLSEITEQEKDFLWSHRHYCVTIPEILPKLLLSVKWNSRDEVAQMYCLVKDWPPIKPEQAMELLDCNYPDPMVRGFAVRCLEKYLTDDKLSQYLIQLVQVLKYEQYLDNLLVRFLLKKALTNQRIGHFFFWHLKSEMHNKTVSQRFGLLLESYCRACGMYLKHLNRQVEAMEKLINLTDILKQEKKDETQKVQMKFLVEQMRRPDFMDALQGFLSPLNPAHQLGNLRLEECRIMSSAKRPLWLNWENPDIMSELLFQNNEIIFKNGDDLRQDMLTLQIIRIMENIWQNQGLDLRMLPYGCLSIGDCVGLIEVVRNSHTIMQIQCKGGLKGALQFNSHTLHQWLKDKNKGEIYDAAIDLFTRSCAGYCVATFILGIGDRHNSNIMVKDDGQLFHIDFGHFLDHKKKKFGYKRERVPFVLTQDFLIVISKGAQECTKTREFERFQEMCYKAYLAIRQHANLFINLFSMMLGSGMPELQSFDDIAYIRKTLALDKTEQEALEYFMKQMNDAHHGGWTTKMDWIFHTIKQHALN

CCc1ncnc(N2CCC(O)(CC)CC2)c1C#Cc1ccc(N)nc1
pIC50: 7.82
